Tests used:
Assay type in all cases: cell-based
MCF-7 = experiment: Cell proliferation assay (WST-1 and/or Alamar Blue), MCF-7; conditions: Homo sapiens, MCF7; MCF-7, epithelial mammary adenocarcinoma; 72 hours incubation
Protocol: (§1) Compounds of the present invention were assayed for activity using a WST-1 cell proliferation assay and/or an Alamar Blue-based assay.
(§2) The WST-1 cell proliferation assay employed was obtained from Chemicon International, Inc. of Temecula, Calif. Further information on assay materials and procedure is provided at www.chemicon.com. The WST-1 cell proliferation assay relies on the formation of a formazan from a tetrazolium salt by cellular enzymes, whereby the amount of the obtained formazan dye as an indicator of viability is directly proportional to the number of metabolically active cells in culture.
(§3) Following 72 hours incubation of the respective cells in 50 μL/well with test compound, 10 μL of WST-1 reagent was added to each well and its contents briefly mixed. The cells were then incubated for 2 hours before absorbance of the dye was measured at 450 nm using a commercial UV/VIS microplate reader (Molecular Devices).
(§4) The Alamar Blue assay employed the CellTiter-Blue™ Cell Viability Assay from Promega Corporation of Madison, Wis. Further information on assay materials and procedure is provided at www.promega.com. The Alamar Blue-based CellTiter-Blue assay indicates cell viability by measuring the ability of cells in culture to reduce resazurin to resorufin, whereby the intensity of the fluorescence signal is directly proportional to the number of live cells. […]

ACHN = experiment: Cell proliferation assay (WST-1 and/or Alamar Blue), ACHN; conditions: Homo sapiens, renal cell adenocarcinoma, 72 hours incubation
Protocol: as §1, §2, §3, §4

DAOY = experiment: Cell proliferation assay (WST-1 and/or Alamar Blue), DAOY; conditions: Homo sapiens, cerebellar medulloblastoma, 72 hours incubation
Protocol: as §1, §2, §3, §4

MOLT-4 = experiment: Cell proliferation assay (WST-1 and/or Alamar Blue), MOLT-4; conditions: MOLT-4, human T-cell derived lymphoblastic leukemia; 72 hours incubation
Protocol: as §1, §2, §3, §4

RS4-11 = experiment: Cell proliferation assay (WST-1 and/or Alamar Blue), RS4-11; conditions: RS4-11, human B-cell derived acute lymphoblastic leukemia; 72 hours incubation
Protocol: as §1, §2, §3, §4

CCRF-CEM = experiment: Cell proliferation assay (WST-1 and/or Alamar Blue), CCRF-CEM; conditions: human T-cell derived lymphoblastic leukemia, 72 hours incubation
Protocol: as §1, §2, §3, §4

HCT-116 = experiment: Cell proliferation assay (WST-1 and/or Alamar Blue), HCT-116; conditions: Homo sapiens; HCT-116, colorectal carcinoma; 72 hours incubation
Protocol: as §1, §2, §3, §4

PANC-1 = experiment: Cell proliferation assay (WST-1 and/or Alamar Blue), PANC-1; conditions: Homo sapiens; PANC-1, pancreas duct epithelial carcinoma; 72 hours incubation
Protocol: as §1, §2, §3, §4

DU145 = experiment: Cell proliferation assay (WST-1 and/or Alamar Blue), DU145; conditions: Homo sapiens, DU-145; DU145, prostate carcinoma; 72 hours incubation
Protocol: as §1, §2, §3, §4

PEER = experiment: Cell proliferation assay (WST-1 and/or Alamar Blue), PEER; conditions: human T-cell derived lymphoblastic leukemia, 72 hours incubation
Protocol: as §1, §2, §3, §4

KASUMI-1 = experiment: Cell proliferation assay (WST-1 and/or Alamar Blue), KASUMI-1; conditions: KASUMI-1, human acute myeloid leukemia; 72 hours incubation
Protocol: as §1, §2, §3, §4

A549 = experiment: Cell proliferation assay (WST-1 and/or Alamar Blue), A549; conditions: Homo sapiens; A549, lung carcinoma; 72 hours incubation
Protocol: as §1, §2, §3, §4

SKM-1 = experiment: Cell proliferation assay (WST-1 and/or Alamar Blue), SKM-1; conditions: SKM-1, human acute myeloid leukemia; 72 hours incubation
Protocol: as §1, §2, §3, §4

MV4-11 = experiment: Cell proliferation assay (WST-1 and/or Alamar Blue), MV4-11; conditions: MV4-11, human acute myelo-monocytic leukemia; 72 hours incubation
Protocol: as §1, §2, §3, §4

PC3 = experiment: Cell proliferation assay (WST-1 and/or Alamar Blue), PC3; conditions: Homo sapiens, PC-3; PC3, prostate adenocarcinoma; 72 hours incubation
Protocol: as §1, §2, §3, §4

C1 = experiment: Cell proliferation assay (WST-1 and/or Alamar Blue), C1; conditions: C1, human B-cell derived acute lymphoblastic leukemia; 72 hours incubation
Protocol: as §1, §2, §3, §4

SUP-B15 = experiment: Cell proliferation assay (WST-1 and/or Alamar Blue), SUP-B15; conditions: SUP-B15, human B-cell derived acute lymphoblastic leukemia; 72 hours incubation
Protocol: as §1, §2, §3, §4

SKOV-3 = experiment: Cell proliferation assay (WST-1 and/or Alamar Blue), SKOV-3; conditions: Homo sapiens, SK-OV-3; SKOV-3, ovarian adenocarcinoma; 72 hours incubation
Protocol: as §1, §2, §3, §4

OCI-AML2 = experiment: Cell proliferation assay (WST-1 and/or Alamar Blue), OCI-AML2; conditions: OCI-AML2, human acute myeloid leukemia; 72 hours incubation
Protocol: as §1, §2, §3, §4

MOLM-13 = experiment: Cell proliferation assay (WST-1 and/or Alamar Blue), MOLM-13; conditions: MOLM-13, human acute myeloid leukemia; 72 hours incubation
Protocol: as §1, §2, §3, §4

786-0 = experiment: Cell proliferation assay (WST-1 and/or Alamar Blue), 786-0; conditions: Homo sapiens; 786-0, renal cell adenocarcinoma; 72 hours incubation
Protocol: as §1, §2, §3, §4

NCI-H460 = experiment: Cell proliferation assay (WST-1 and/or Alamar Blue), NCI-H460; conditions: Homo sapiens; NCI-H460, large cell lung carcinoma; 72 hours incubation
Protocol: as §1, §2, §3, §4

OVCAR-5 = experiment: Cell proliferation assay (WST-1 and/or Alamar Blue), OVCAR-5; conditions: Homo sapiens; OVCAR-5, ovarian carcinoma; 72 hours incubation
Protocol: as §1, §2, §3, §4

MDA-MB453 = experiment: Cell proliferation assay (WST-1 and/or Alamar Blue), MDA-MB453; conditions: Homo sapiens, MDA-MB-453; MDA-MB453, metastatic breast carcinoma; 72 hours incubation
Protocol: as §1, §2, §3, §4

SK-MEL-5 = experiment: Cell proliferation assay (WST-1 and/or Alamar Blue), SK-MEL-5; conditions: Homo sapiens; SK-MEL-5, malignant melanoma; 72 hours incubation
Protocol: as §1, §2, §3, §4

MiaPACA-2 = experiment: Cell proliferation assay (WST-1 and/or Alamar Blue), MiaPACA-2; conditions: Homo sapiens, MIA PaCa-2; MiaPACA-2, pancreas carcinoma; 72 hours incubation
Protocol: as §1, §2, §3, §4

CC(C)C(=O)Nc1cccc(C(=O)Nc2nnc(CCc3ccccc3)s2)c1 [Compound A] was tested, and the IC50 (MCF-7) was > 20 µM, the IC50 (ACHN) was 5 µM and the IC50 (DAOY) was 2.7 µM. It also gave an IC50 (MOLT-4) of 0.34 µM, an IC50 (RS4-11) of 0.13 µM and an IC50 (CCRF-CEM) of 0.97 µM. The IC50 (HCT-116) was 17.3 µM, the IC50 (PANC-1) was > 20 µM and the IC50 (DU145) was 6.14 µM. For the same molecule, the IC50 (PEER) was > 20 µM, the IC50 (KASUMI-1) was ≥ 20 µM and the IC50 (A549) was 19.1 µM. It also gave an IC50 (SKM-1) of 0.6 µM, an IC50 (MV4-11) of 0.93 µM and an IC50 (PC3) of 2.35 µM. It also gave an IC50 (C1) of 0.57 µM, an IC50 (SUP-B15) of 4.82 µM and an IC50 (SKOV-3) of 3.5 µM. It also gave an IC50 (OCI-AML2) of 0.35 µM, an IC50 (MOLM-13) of 0.83 µM and an IC50 (786-0) of 4.34 µM. The IC50 (NCI-H460) was 2.32 µM, the IC50 (OVCAR-5) was 6.65 µM and the IC50 (MDA-MB453) was 1.71 µM. For the same molecule, the IC50 (SK-MEL-5) was 2.39 µM and the IC50 (MiaPACA-2) was 3.36 µM.

From US20070213378A1, “Compounds for modulating cell proliferation, compositions and methods related thereto” (LymphoSign Inc., priority 2006, published 2007)
